Measured values published in patent US20260344668A1, “PHENYLPYRAZOLE COMPOUND, AND PLANT DISEASE CONTROL METHOD” (priority 2022, published 2026).

Key:
Cladosporium carpophilum = assay: Test Example 5 Control Test Against Peach Scab Fungus (96 well titer plate growth); type: cell-based; settings: 1 μL of 150 ppm DMSO solution + 150 μL PDB medium, 18° C., 5 days, absorbance at 550 nm
Protocol: (§1) The term of “non-treated well” in Test Example 4, Test Example 5, and Test Example 6 represents a well wherein a test was carried out under the same conditions as those described in each Test Example except for dispensing DMSO instead of a diluted solution with DMSO comprising the Present compound. Also, the term of “non-treated” in Test Examples 15 to 17 represents a test which was carried out under the same conditions as those described in each Test Example except for dispensing DMSO instead of a diluted solution with DMSO comprising the Present compound. Also, the term of “non-treated leaf disk” in Test Example 7 represents a leaf disk wherein a test was carried out under the same conditions as those described in the Test Example except for dispensing DMSO instead of a diluted solution with DMSO comprising the Present compound. Also, the term of “non-treated” in Test Example 10 and Test Example 11 means that a diluted solution with water of a formulation comprising the Present compound was not sprayed.
Each of the Present compound 79, 80, 81, 89, 92, 93, 96, or 99 was diluted with DMSO to obtain a diluted solution containing 150 ppm of each compound, and 1 μL of the diluted solution was dispensed into a titer plate (96 well), and thereto was then dispensed 150 μL of a potato dextrose broth medium (PDB medium) to which spores of Cladosporium carpophilum were inoculated in advance. This plate was cultured at 18° C. for 5 days, thereby allowing Cladosporium carpophilum to undergo proliferation, and the absorbance at 550 nm of each well of the titer plate was then measured to determine a degree of growth of Cladosporium carpophilum. As a result, the degree of growth in the well treated with each of the above Present compound was 50% or less relative to the degree of growth in the non-treated well.

[1] = system: soybean rust fungus (Phakopsora pachyrhizi) having an amino acid substitution of F129L in a mitochondrial cytochrome b protein; assay: Test Example 7 Control Test Against Soybean Rust (leaf disk); type: in vivo; settings: 200 ppm, 10 μL per soybean leaf disk (cultivar: Kurosengoku), inoculated after 1 day
Method in brief: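 Soybean (Kurosengoku) leaf disks of 1 cm on 1.2% agar were sprayed with compound in a DMSO/xylene/Sorpol emulsion diluted in water to a prescribed concentration. One day later they were spray-inoculated with F129L cytochrome b mutant P. pachyrhizi spores (1.0×10^5/mL) and kept at 23 °C, 60% humidity, 6 h light, for about 13 days. Lesion area was compared with DMSO-treated disks.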

Phakopsora pachyrhizi [2] = assay: Test Example 15 Control Test Against Soybean Rust Fungus (spore germination, 96 well titer plate); type: cell-based; settings: treatment concentration 1 ppm, 23° C., several hours
Method in brief: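 Compound in DMSO was added to an aqueous Phakopsora pachyrhizi spore suspension (1.0×10^4/mL) and incubated several hours at 23° C. Germinated spores were counted relative to DMSO-only wells.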

Phakopsora pachyrhizi [3] = assay: Test Example 11 Control Test Against Soybean Rust (pot test, spraying before inoculation); type: in vivo; settings: 200 ppm foliage spray, soybeans (Kurosengoku), inoculated after 2 to 5 days
Method in brief: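 Soybeans (cv. Kurosengoku), grown 10–14 days in pots, foliar-sprayed with formulated compound at 200 ppm, inoculated 2–5 days later with Phakopsora pachyrhizi spores. Kept humid 1–2 days at 23 °C day/20 °C night, then greenhouse 12 days; lesion area scored against unsprayed plants.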

Cochliobolus miyabeanus = assay: Test Example 6 Control Test Against Rice Brown Spot Fungus (96 well titer plate growth); type: cell-based; settings: 1 μL of 150 ppm DMSO solution + 150 μL YB liquid medium, 23° C., 3 days, absorbance at 550 nm
Protocol: as §1
Each of the Present compound 17, 33, 36, 37, 39, 40, 41, 42, 43, 44, 48, 49, 50, 51, 52, 53, 62, 68, 69, 70, 71, 76, 77, 79, 80, 81, 82, 83, 84, or 97 was diluted with DMSO to obtain a diluted solution containing 150 ppm of each compound, and 1 μL of the diluted solution was dispensed into a titer plate (96 well), and thereto was then dispensed 150 μL of a YB liquid medium to which spores of Cochliobolus miyabeanus were inoculated in advance. This plate was cultured at 23° C. for 3 days, thereby allowing Cochliobolus miyabeanus to undergo proliferation, and the absorbance at 550 nm of each well of the titer plate was then measured to determine a degree of growth of Cochliobolus miyabeanus. As a result, the degree of growth in the well treated with each of the above Present compounds was 50% or less relative to the degree of growth in the non-treated well.

SMILES	degree of growth relative to the degree of growth in the non-treated well (Cladosporium carpophilum) [%]	lesion area relative to the lesion area of non-treated leaf disk [1] [%]	number of germinated spores relative to the non-treated well (Phakopsora pachyrhizi [2]) [%]	lesion area relative to the lesion area in the non-treated soybeans (Phakopsora pachyrhizi [3]) [%]	degree of growth relative to the degree of growth in the non-treated well (Cochliobolus miyabeanus) [%]
O=S(=O)(c1cccs1)n1ccc(-c2cccc(F)c2)n1 [compound 96]	≤ 50	≤ 30	≤ 50	≤ 30	–
O=S(=O)(c1cccs1)n1ccc(-c2ccc3nsnc3c2)n1 [compound 68]	–	≤ 30	≤ 50	≤ 30	≤ 50
O=S(=O)(c1cccs1)n1ccc(-c2ccc(C(F)(F)F)c(F)c2)n1 [compound 39]	–	≤ 30	≤ 50	≤ 30	≤ 50
O=S(=O)(c1ccco1)n1ccc(-c2cc(F)c(Br)c(F)c2)n1 [compound 37]	–	≤ 30	≤ 50	≤ 30	≤ 50
Cc1ccc(-c2ccn(S(=O)(=O)c3cccs3)n2)cc1F [compound 71]	–	≤ 30	≤ 50	≤ 30	≤ 50
O=S(=O)(c1ccoc1)n1ccc(-c2ccc(F)c(F)c2)n1 [compound 92]	≤ 50	≤ 30	≤ 50	≤ 30	–
Cc1ccc(-c2ccn(S(=O)(=O)c3cccnc3)n2)cc1 [compound 99]	≤ 50	≤ 30	≤ 50	≤ 30	–
Cc1ccc(-c2ccn(S(=O)(=O)c3ccco3)n2)cc1F [compound 69]	–	≤ 30	≤ 50	≤ 30	≤ 50
O=S(=O)(c1ccoc1)n1ccc(-c2ccc(F)cc2)n1 [compound 89]	≤ 50	≤ 30	≤ 50	≤ 30	–
O=S(=O)(c1cccs1)n1ccc(-c2ccc(C3CC3)cc2)n1 [compound 42]	–	≤ 30	≤ 50	≤ 30	≤ 50
Cc1ccc(-c2ccn(S(=O)(=O)c3ccoc3)n2)cc1 [compound 77]	–	≤ 30	≤ 50	≤ 30	≤ 50
O=S(=O)(c1cccs1)n1ccc(-c2ccc(F)c(F)c2)n1 [compound 93]	≤ 50	≤ 30	≤ 50	≤ 30	–
O=S(=O)(c1cccs1)n1ccc(-c2cc(F)c(Br)c(F)c2)n1 [compound 33]	–	≤ 30	≤ 50	≤ 30	≤ 50
